The test system of one assay is HUVEC. The assay is described as follows: Inhibition of cell proliferation of HUVEC at 12.5 to 200 uM after 72 hrs by MTS assay. Particulars: Homo sapiens. The assay is classed as functional, cell-based.
Assay [1] has as its target T1, Angiomotin (Homo sapiens) (UniProt Q4VCS5).
T1 sequence (whole entry): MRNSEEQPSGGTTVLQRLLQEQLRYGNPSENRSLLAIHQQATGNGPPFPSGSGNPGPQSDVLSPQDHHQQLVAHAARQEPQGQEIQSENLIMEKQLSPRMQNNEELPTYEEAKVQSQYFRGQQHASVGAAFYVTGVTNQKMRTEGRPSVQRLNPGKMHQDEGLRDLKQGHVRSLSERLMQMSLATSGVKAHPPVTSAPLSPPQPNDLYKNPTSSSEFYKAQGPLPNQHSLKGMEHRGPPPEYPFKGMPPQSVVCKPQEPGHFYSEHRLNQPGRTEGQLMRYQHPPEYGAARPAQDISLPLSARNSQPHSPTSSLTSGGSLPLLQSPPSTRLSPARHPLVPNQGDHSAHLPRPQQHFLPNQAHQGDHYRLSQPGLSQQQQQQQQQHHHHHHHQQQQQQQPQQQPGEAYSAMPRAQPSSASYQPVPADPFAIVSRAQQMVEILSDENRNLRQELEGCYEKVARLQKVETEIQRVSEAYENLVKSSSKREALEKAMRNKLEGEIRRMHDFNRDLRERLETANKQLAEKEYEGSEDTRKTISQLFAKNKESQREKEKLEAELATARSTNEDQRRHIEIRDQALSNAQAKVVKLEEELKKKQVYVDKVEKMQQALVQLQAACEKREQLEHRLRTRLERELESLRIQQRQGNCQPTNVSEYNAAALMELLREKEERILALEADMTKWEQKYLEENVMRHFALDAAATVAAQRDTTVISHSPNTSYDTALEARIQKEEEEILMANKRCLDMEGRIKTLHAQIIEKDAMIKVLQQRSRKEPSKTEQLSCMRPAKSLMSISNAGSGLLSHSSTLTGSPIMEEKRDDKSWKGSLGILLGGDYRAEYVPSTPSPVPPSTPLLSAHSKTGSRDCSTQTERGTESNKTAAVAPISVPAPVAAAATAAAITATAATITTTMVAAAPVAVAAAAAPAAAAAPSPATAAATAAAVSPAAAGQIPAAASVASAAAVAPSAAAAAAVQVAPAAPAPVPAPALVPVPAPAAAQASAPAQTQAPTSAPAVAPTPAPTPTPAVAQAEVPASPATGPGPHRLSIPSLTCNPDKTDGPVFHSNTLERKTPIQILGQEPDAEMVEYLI
The assay is described as follows: Binding affinity to recombinant GST-tagged Amot (H343 to I675 residues) (unknown origin) expressed in Escherichia coli at 25 uM using Amot immobilized on gold electrode of QCM sensor chip by […] biosensor-based assay.

Assay [2] deals with T1, Angiomotin (Homo sapiens). Description: Binding affinity to recombinant GST-tagged Amot (H343 to I675 residues) (unknown origin) expressed in Escherichia coli at 50 uM using Amot immobilized on gold electrode of QCM sensor chip by […] biosensor-based assay.

The source made the active and inactive calls. The rule behind the calls is not given here.

In the assay on HUVEC, `CC[C@H]1OC(=O)[C@H](C)[C@@H](O[C@H]2C[C@@](C)(OC)[C@@H](O)[C@H](C)O2)[C@H](C)[C@@H](O[C@@H]2O[C@H](C)C[C@H](N(C)C)[C@H]2O)[C@](C)(O)C[C@@H](C)/C(=N\OCOCCOC)[C@H](C)[C@@H](O)[C@]1(C)O` [ROXITHROMYCIN] gave an IC50 of 100 µM. For the same compound, the outcome in assay [1] and in assay [2] was Active.

For the origin of these results see ChEMBL document CHEMBL3393018, “Multimodal biopanning of T7 phage-displayed peptides reveals angiomotin as a potential receptor of the anti-angiogenic macrolide Roxithromycin” (Eur J Med Chem, 2015).
